Results taken from patent US20040043377A1, “Evaluation method for predicting pharmacokinetics of PM using PM liver cells of drug metabolozing enzyme cytochrome P450 having a genetic polymorphism” (Pfizer Inc, priority 2002, published 2004).
Where two headings read alike, the source gives them in different places.

Legend:
PM liver microsomes = assay: Metabolite formation in PM liver microsomes (Lot. No. HHM-0168); format: in vitro ADME, human
Procedure: Incubation reactions from the determination of the enzymatic kinetic parameters were carried out at a protein concentration of 0.2 mg/ml in 100 mM potassium phosphate, pH 7.4 containing 1.3 mM NADP^+, 0.93 mM NADH, 3.3 mM glucose-6-phosphate, 8 units/ml G-6-PDH, 3.3 mM MgCl2, and substrates. Reactions were initiated by the addition of NADP^+/NADH, and then terminated after 10 min incubation at 37° C. by the addition of ten-fold volume of acetonitrile containing an LC/MS/MS internal standard (Levallorphan at 100 ng/ml final conc.). The mixtures were centrifuged for 10 min, and supernatants were used for LC/MS/MS analyses to determine the production rates of metabolites.

CYP2D6 = CYP2D6 (Homo sapiens, UniProt P10635); details: cited from earlier work
[1] = clinical dose level (about 20 mg/body); cited from earlier work
[2] = system: isolated PM liver cells of CYP2D6 (Lot 64); assay: Dextromethorphan metabolism in cryopreserved isolated PM liver cells of CYP2D6 (Lot 64); format: in vitro ADME, human
Procedure: (§1) A preliminary test for evaluation metabolic reactions was conducted by selecting dextromethorphan (DM, analgesic agent) as the substrate of CYP2D6. Metabolism of DM in the clinical setting is known to proceed by N-demethylation, O-demethylation followed by glucuronic acid conjugation. CYP3A4 catalyzes the N-demethylation reaction, while CYP2D6 catalyzes the O-demethylation reaction. In PM of […], N-demethylation is known to proceed as a compensatory metabolic pathway of O-demethylation. In the present embodiment, metabolic reactions were examined for dextromethorphan using isolated PM liver cells of CYP2D6, and a discussion was made as to whether or not the pharmacokinetics of PM can be predicted.
(§2) The cryopreserved isolated PM liver cells of PM of CYP2D6 that were used (Lot 64) and the cryopreserved isolated EM liver cells (Lot 70) were prepared at In Vitro Technologies (IVT), USA. Liver cells for which the activity of CYP3A4 was roughly equal to that of Lot 64 of the cryopreserved isolated PM liver cells were selected by referring to data provided by IVT for use as the cryopreserved isolated EM liver cells. The acquired cells consisted of 6×10^6 cells per vial for both lots.
(§3) Krebs Henseleit buffer (adjusted to pH 7.4 following addition of calcium chloride dihydrate (0.373 g/L), sodium bicarbonate (2.1 g/L) and HEPES (1.5 g/L)) was used for the incubation medium. The cryopreserved human isolated liver cells were inoculated into a 96-well plate and used for testing while suspended in culture liquid. Dextromethorphan (DM), which is the substrate of CYP2D6, was added to the wells at final concentrations of 0.08, 0.4, 2, 10 and 50 μM and allowed to react at 37° C. The reaction liquid was sampled after 1 and 2 hours, and the parent compound (DM) along with dextrorphan (DEX: metabolite mainly produced by CYP2D6) and 3-methoxymorphinan (3-MM: metabolite mainly produced by CYP3A4) were respectively assayed. In addition, with respect to assay of the conjugate (glucuronide), DEX obtained by hydrolysis following the addition of β-glucuronidase/allylsulfatase to the sampled reaction liquid was assayed, and the difference with DEX prior to hydrolysis was taken to be the amount of the conjugate. LC/MS/MS were used for analyzing the unchanged form and metabolites in the culture liquid.
Furthermore, LC/MS/MS were carried out under the measurement conditions described below. HPLC: Waters 2790, MS: API365 Sciex, column: YMC J′ sphere ODS L80 2×35 mm, gradient: mobile phase A [CH3CN:10 mM CH3CO2NH4 aqueous solution=10:90], mobile phase B [CH3CN:10 mM CH3CO2NH4 aqueous solution=80:20], conditions [mobile phase flow rate 0.35 ml/minute, composition of mobile phase changed from A:B=100:0 to A:B=0:100 1 minute after sample injection, followed by allowing composition of A:B=0:100 to flow for 1 minute], MS/MS detection: DM=272.3/170.9, DEX=258.2/157.1, 3-MM=258.2/215.0, MDZ=326.1/291.1, 4-OH MDZ=342.1/324.1.

[3] = system: isolated EM liver cells (Lot 70); assay: Dextromethorphan metabolism in cryopreserved isolated EM liver cells (Lot 70); format: in vitro ADME, human
Procedure: as §1, §2
as §3, with “In addition, with respect to assay of the conjugate (glucuronide), DEX obtained by hydrolysis following the addition of β-glucuronidase/allylsulfatase to the sampled reaction liquid was assayed, and the difference with DEX prior to hydrolysis was taken to be the amount of the conjugate. LC/MS/MS were used for analyzing the unchanged form and metabolites in the culture liquid.” left out

Sequence of CYP2D6 (P10635 whole entry): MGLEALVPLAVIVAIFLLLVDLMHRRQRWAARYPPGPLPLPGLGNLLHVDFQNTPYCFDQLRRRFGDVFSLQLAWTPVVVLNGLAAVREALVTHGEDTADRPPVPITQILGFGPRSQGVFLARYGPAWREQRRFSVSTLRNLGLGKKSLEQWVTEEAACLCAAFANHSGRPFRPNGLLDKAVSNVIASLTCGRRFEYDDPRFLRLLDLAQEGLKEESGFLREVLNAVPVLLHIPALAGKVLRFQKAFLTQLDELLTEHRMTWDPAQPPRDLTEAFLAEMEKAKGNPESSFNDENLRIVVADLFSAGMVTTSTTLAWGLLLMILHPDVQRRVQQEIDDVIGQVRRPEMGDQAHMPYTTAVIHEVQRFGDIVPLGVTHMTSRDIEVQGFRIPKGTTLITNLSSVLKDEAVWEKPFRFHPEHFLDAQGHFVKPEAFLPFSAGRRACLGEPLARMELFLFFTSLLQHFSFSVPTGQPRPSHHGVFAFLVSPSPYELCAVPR

COc1ccc2c(c1)[C@]13CCCC[C@@H]1[C@H](C2)N(C)CC3 [DM, dextromethorphan]
differences in 3-MM/1'OH-MDZ formation rate between PM and EM liver microsomes (PM liver microsomes; FIG. 6): not statically significance | compensatory metabolic pathway (PM liver microsomes; PM microsomes): did not proceed | Km (CYP2D6): ~2 µM | concentration of DM in the blood [1]: up to 1 μM | DEX formation [2]: not detected | 3-MM formation rate versus EM liver cells ([2]; CYP2D6 PM liver cells): greater than that in EM liver cells | differences in 3-MM/1'OH-MDZ formation rate between PM and EM liver cells (hepatocytes) ([2]; FIG. 5): large | formation rate of 3-MM relative to DEX formation rate ([2]; PM liver cells): comparable to the DEX formation rates | DEX formation ([2]; PM liver cells, DM 10 μM and 50 μM): formation of DEX was observed | DEX formation ([2]; PM, in the vicinity of concentration of DM in the blood (up to 1 μM)): only slight formation of DEX | glucuronic acid conjugation reaction (DEX-glucuronide formation) ([2]; isolated PM liver cells lot 64): clearly determined to proceed | formation rate of 3-MM relative to DEX formation rate ([3]; EM liver cells): less than one-tenth | formation rate of metabolite DEX ([3]; EM liver cells, DM 0.08-50 μM): increased concentration-dependently | glucuronic acid conjugation reaction (DEX-glucuronide formation) ([3]; isolated EM liver cells lot 70): clearly determined to proceed
